# Results as given in PMC5452347, “Serendipitous discovery of light-induced (In Situ) formation of an Azo-bridged dimeric sulfonated naphthol as a potent PTP1B inhibitor” (BMC Biochemistry, 2017).
# Read-outs that look alike come from different tables or passages of the source.
# Key:
# DUSP5 PD(WT) = biological target: T1, DUSP5 PD(WT) (Homo sapiens, UniProt Q16690); experiment: DUSP5 PD(WT) in vitro phosphatase assay with pNPP as substrate; format: biochemical
# T1 construct: The DUSP5 phosphatase domain (DUSP5 PD(WT)) gene was synthesized by Blue Heron; made in house
# T1 sequence (Q16690 178-319 limits assumed): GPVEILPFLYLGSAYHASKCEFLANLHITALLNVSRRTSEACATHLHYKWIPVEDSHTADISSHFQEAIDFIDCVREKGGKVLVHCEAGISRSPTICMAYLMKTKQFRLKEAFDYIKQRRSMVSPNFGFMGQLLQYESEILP
# Procedure: The DUSP5 phosphatase domain (DUSP5 PD(WT)) gene was synthesized by Blue Heron (Bothell, WA) and the protein expressed and purified as previously described. To measure the enzymatic activity of wild type phosphatase domain of DUSP5 {DUSP5 PD(WT)} and the inhibitory capacity of selected compounds, an in vitro phosphatase assay was utilized as previously described. Briefly, assays without and with inhibitors were performed in Greiner 96-well clear bottom plates with a total assay volume of 200 μL. The assay buffer contained 100 mM Tris, 100 mM NaCl, 5 mM MgCl2 • 6H2O and 1 mM dithiothreitol (DTT) at pH 7.5. p-nitrophenyl phosphate (pNPP, Sigma Aldrich) 5 mM was used as the substrate. DUSP5 PD(WT) dephosphorylates pNPP to yield p-nitrophenolate, which absorbs at 405 nm, having an extinction coefficient of 18,000 M^-1 cm^-1. The reaction was initiated by the addition of 4 μL of a 29 μM DUPSP5 PD(WT) enzyme stock and absorbance was monitored at 25 °C over time using a Spectramax M5 microplate reader (Molecular Devices). Blanks contained only buffer and pNPP. Negative controls (without inhibitor) contained assay buffer with pNPP and DUSP5 PD(WT).
# Appropriate vehicles were added to the blank and negative control wells. A minimum of three replicate wells was run for each condition and at each inhibitor concentration. The replicate wells were averaged to give a single data point. The reaction was initiated upon addition of 4 μL of a 29 μM enzyme stock which was dispensed to each of the wells except the blanks utilizing a single channel pipette. The resulting DUSP5 PD(WT) concentration in the assay buffer was 0.58 μM. The plate was returned to the plate reader, shaken, and absorbance recorded at 25 °C every thirty seconds over a ten to sixty mins time course. In selected experiments the plate was returned to the plate reader following a 10 mins recording for one or two additional 10 mins absorbance recordings.
# (§1) Initial rate values obtained from the plate reader were normalized to percent activity relative to the mean negative control rates. Graphpad Prism 6 software was utilized to calculate a non-linear regression (curve fit) using a variable slope model equation, constraining the top and bottom values to 100% activity and 0% activity, respectively, using the following equation:2 vi=Bottom+Top−Bottom/1+10^logIC50−x*HillSlope where v i is the initial rate.
# To investigate the mechanism of DUSP5 PD(WT) inhibition by RR601, initial velocity inhibition profiles of RR601 were obtained in a 96-well plate format by measuring DUSP5 PD(WT) initial velocities in assay buffer containing of 1, 3, 9, 27 and 81 mM pNPP and 0, 3, 10, 30 and 75 μM RR601 at each pNPP concentration. Reactions were initiated by the addition of DUSP5 PD(WT) to a final concentration of 0.6 μM in each of the wells, excluding the blank. The data were fitted to a global competitive inhibition model (Graphpad Prism) using the following equation:3 vi=VmaxS/Km1+I/Ki+S where v is the initial velocity, V max the maximum velocity, K m the Michaelis constant, [S] the concentration of pNPP, [I] the concentration of RR601 and K i the inhibition constant.
# PTP1B [1] = biological target: T2, PTP1B (Homo sapiens, UniProt P18031); experiment: PTP1B in vitro phosphatase assay with pNPP; format: biochemical
# T2 construct: purchased Creative Biomart
# T2 sequence (P18031 1-435): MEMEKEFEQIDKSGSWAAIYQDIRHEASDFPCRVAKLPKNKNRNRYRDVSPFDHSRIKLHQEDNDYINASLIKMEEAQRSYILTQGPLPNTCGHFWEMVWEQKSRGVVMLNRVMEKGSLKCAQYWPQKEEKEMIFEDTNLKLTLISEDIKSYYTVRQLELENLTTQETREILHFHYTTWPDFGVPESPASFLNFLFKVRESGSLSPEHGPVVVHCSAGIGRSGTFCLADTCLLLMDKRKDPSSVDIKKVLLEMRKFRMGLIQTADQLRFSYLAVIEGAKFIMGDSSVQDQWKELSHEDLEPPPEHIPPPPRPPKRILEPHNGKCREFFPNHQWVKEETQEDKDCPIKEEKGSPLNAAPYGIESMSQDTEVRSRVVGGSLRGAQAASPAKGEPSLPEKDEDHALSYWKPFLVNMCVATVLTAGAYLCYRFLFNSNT
# Procedure: To examine the capacity of RR601 to inhibit protein-tyrosine phosphatase 1B (PTP1B), (Creative Biomart), activity, an in vitro phosphatase assay was adapted from. Assays with and without inhibitor were performed in Corning 96-well clear bottom plates having a non-binding surface, with a total assay volume of 200 μL. The assay buffer contained 100 mM Tris, 100 mM NaCl, 1 mM EDTA at pH 7.0 and 2.2 mM pNPP as the substrate. […] The reaction was initiated upon addition of 4 μL of a 5.0 μM PTP1B stock, which was dispensed to each of the wells except the blanks using a single channel pipette. The resulting PTPB1 concentration in the assay buffer was 0.1 μM. […] Assays were performed in 96-well plates in a similar manner as reported above. The assay buffer contained 50 mM HEPES (pH 7.4), 2 mM EDTA, 3 mM DTT and 100 mM NaCl. An initial experiment was performed to determine the kinetic parameters of the SHP-2 enzyme. The reaction was initiated with the addition of 4 μL of a 0.35 μM stock SHP-2 enzyme into wells containing 0, 1, 3, 9, 27 and 81 μM pNPP. The SHP-2 assay concentration was 7 nM. Absorbance was recorded every 30 s over a ten minute assay period at a temperature of 25 °C (Additional file 1: Fig. S8). Initial velocities were fit to the Michaelis-Menten equation:1 v=VmaxS/Km+S where v is the initial velocity, V max the maximum velocity, K m the Michaelis constant, and [S] the pNPP concentration. […] Assay buffer contained 7.5 mM pNPP, roughly one-half the value of the Michaelis constant determined from the study above. Reactions were initiated with the addition of 4 μL SHP-2 enzyme, resulting in a final assay enzyme concentration of 7 nM.
# as §1
# SHP2 = system: SHP2; design: method as in PMID 16717135; settings: read-out: IC50, SHP2 (reported); cited from earlier work
# PTP1B [2] = biological target: T2, PTP1B; design: method as in PMID 16717135; settings: read-out: IC50, PTP1B (reported); cited from earlier work
# [3] = Nephelometry (compound aggregation); format: physicochemical
# Procedure: Nephelometry was performed to determine the relative propensity of the inhibitor compounds to aggregate in solution, based on the light scattering properties of the molecular aggregates. Compound aggregation can lead to artifact inhibitory effects, thus confounding a study of mechanism of inhibition. Compounds were tested for aggregation in a 96-well plate format, final volume 200 μL, using the phosphatase activity assay buffer at pH 7.5 without added pNPP. […] Eight wells were used for blanks and for each compound concentration. Plates were analyzed at two separate gains to determine if the signals were at saturating levels. Progesterone was used as a positive control for compound aggregation. Data were collected using a BMG […] Plus, equipped with a 635 nm laser.
# GST-DUSP5 = biological target: T3, GST-DUSP5 (Homo sapiens, UniProt Q16690); experiment: In vitro ERK dephosphorylation (pERK) western blot assay; format: biochemical; settings: full-length GST-DUSP5, pERK as substrate; global fit of three experiments
# T3 construct: this assay was done with full-length protein (containing both domains), and using pERK as substrate; made in house
# T3 sequence (Q16690 1-384): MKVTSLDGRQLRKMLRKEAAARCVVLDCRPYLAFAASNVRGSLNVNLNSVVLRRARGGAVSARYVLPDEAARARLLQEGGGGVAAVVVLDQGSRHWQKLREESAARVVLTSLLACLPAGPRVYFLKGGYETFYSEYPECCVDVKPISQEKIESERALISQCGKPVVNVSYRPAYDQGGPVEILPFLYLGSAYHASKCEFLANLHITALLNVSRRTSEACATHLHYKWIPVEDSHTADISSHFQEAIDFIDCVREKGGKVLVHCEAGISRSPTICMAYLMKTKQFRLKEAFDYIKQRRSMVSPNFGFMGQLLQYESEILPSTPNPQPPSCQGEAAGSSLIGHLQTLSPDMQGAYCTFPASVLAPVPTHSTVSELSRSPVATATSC
# SHP-2 = biological target: T4, SHP-2 (Homo sapiens, UniProt Q06124); experiment: SHP-2 in vitro phosphatase assay with pNPP; format: biochemical
# T4 construct: purchased Creative Biomart
# T4 sequence (Q06124 1-593): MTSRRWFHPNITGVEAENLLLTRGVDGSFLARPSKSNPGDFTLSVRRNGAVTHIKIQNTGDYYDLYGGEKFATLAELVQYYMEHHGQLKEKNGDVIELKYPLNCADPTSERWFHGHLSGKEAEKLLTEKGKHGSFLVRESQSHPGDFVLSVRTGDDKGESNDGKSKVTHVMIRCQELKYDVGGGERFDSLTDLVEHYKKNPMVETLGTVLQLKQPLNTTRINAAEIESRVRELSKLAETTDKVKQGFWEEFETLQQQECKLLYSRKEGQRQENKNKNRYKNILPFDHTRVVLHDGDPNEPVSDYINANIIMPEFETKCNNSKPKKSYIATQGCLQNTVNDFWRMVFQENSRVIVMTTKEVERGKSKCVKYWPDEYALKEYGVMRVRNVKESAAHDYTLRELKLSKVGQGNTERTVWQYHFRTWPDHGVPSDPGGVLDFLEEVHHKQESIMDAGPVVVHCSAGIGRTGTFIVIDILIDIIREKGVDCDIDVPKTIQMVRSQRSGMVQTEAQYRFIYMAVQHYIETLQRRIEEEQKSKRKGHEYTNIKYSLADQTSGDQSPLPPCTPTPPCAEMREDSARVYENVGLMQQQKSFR
# Description: as §1
compound,measurement,setting,value
O=S(=O)(O)c1ccc2cc(N=Nc3cc(S(=O)(=O)O)c4cccnc4c3O)ccc2c1 [NSC-87877],"IC50, DUSP5 PD(WT)","DUSP5 PD(WT); pNPP, at 60 minutes, 0.1 to 300 μM",did not inhibit
same,IC50,"DUSP5 PD(WT); pNPP, at 60 minutes, 0.1 to 300 μM, read-out: IC50, DUSP5 PD(WT)",> 3000 µM
same,"Inhibition of PTP1B activity, initially","PTP1B [1]; 0.1 to 300 μM, start of assay",did not initially inhibit
same,IC50,"PTP1B [1]; pNPP, continuous monitoring over 60 min, read-out: IC50, PTP1B, after 50 mins of the reaction assay",723 ± 302 µM
same,IC50,"PTP1B [1]; pNPP, continuous monitoring over 60 min, read-out: IC50, PTP1B, after 60 mins of the reaction assay",337 ± 130 µM
same,IC50,PTP1B [2],1700 nM
"Nc1cccc2c(O)cc(S(=O)(=O)O)cc12 [RR535, 1-amino-5-naphthol-7-sulfonic acid]",Compound aggregation over the concentration range tested (nephelometry),"[3]; 1 to 300 μM, stocks stored in the dark or exposed to room light for seventeen days",little or no measurable aggregation
O=S(=O)(O)c1cc(O)c2cccc(/N=N/c3cccc4c(O)cc(S(=O)(=O)O)cc34)c2c1 [RR601],IC50,"DUSP5 PD(WT); MP Biomedicals and RR535 stocks exposed to light 90 days, RR601 freshly prepared, pNPP, ± SE, read-out: DUSP5 PD(WT) inhibitor IC50, assay reaction period 15 – 25 min",36.5 ± 1.5 µM
same,"Vmax of DUSP5 PD(WT), Lineweaver-Burk",DUSP5 PD(WT); in the presence of 3 µM RR601,0.54 µM/min
same,"Vmax of DUSP5 PD(WT), Lineweaver-Burk",DUSP5 PD(WT); in the presence of 10 µM RR601,0.61 µM/min
same,"Vmax of DUSP5 PD(WT), Lineweaver-Burk",DUSP5 PD(WT); in the presence of 30 µM RR601,0.62 µM/min
same,"Vmax of DUSP5 PD(WT), Lineweaver-Burk",DUSP5 PD(WT); in the presence of 75 µM RR601,0.69 µM/min
same,Mechanism of DUSP5 PD(WT) inhibition,DUSP5 PD(WT); initial velocity studies varying pNPP and RR601,competitive inhibitor
same,IC50,"DUSP5 PD(WT); pNPP substrate, read-out: IC50, DUSP5 PD(WT) (summary value)",36 µM
same,IC50,"DUSP5 PD(WT); read-out: DUSP5 PD(WT) inhibitor IC50, assay reaction period 0 – 10 min, MP Biomedicals and RR535 stocks exposed to light 90 days, RR601 freshly prepared, pNPP, ± SE",36.9 ± 3.9 µM
same,IC50,"DUSP5 PD(WT); read-out: DUSP5 PD(WT) inhibitor IC50, assay reaction period 30 – 40 min, MP Biomedicals and RR535 stocks exposed to light 90 days, RR601 freshly prepared, pNPP, ± SE",34.5 ± 1.4 µM
same,IC50,GST-DUSP5,4.8 µM
same,IC50,"PTP1B [1]; pNPP 2.2 mM, 10 min recording, ± SE, read-out: IC50, PTP1B",2.1 ± 0.2 µM
same,Selectivity for PTP1B versus DUSP5,PTP1B [1]; ratio of IC50 values,18 fold
same,Ki,"SHP-2; 1-30 mM pNPP, 0-3.0 µM RR601, ± SE, read-out: Ki, SHP-2, global competitive model fit",380 ± 50 nM
same,IC50,"SHP-2; pNPP 7.5 mM, 10 min reaction, ± SE",1100 ± 100 nM
same,Mechanism of SHP-2 inhibition,SHP-2; substrate concentrations less than 30 mM,fit best to a competitive inhibition model
"CC(=O)[C@H]1CC[C@H]2[C@@H]3CCC4=CC(=O)CC[C@]4(C)[C@H]3CC[C@]12C [progesterone, reference compound]",Concentration at which aggregation begins (nephelometry),[3]; phosphatase assay buffer pH 7.5 without pNPP,approximately 100 μM
